Results on 25 molecules are retold here after patent US20250353820A1, “ANTIVIRAL PYRAZOLOPYRIDINONE COMPOUNDS” (Novartis AG, priority 2019, published 2025).

For this experiment, the target named is human HSV DNA polymerase UL30 (Human herpesvirus 1 (strain 17) (HHV-1) (Human herpes simplex virus 1), UniProt P04293). Briefly: biochemical. Particulars: 625 pM HSV polymerase, 20 minutes at room temperature; read-out: HSV-polymerase Biochemical IC50.
For orientation: IC50 means the concentration at which inhibition is half-maximal. For `CNCCOCC(C)(C)S(=O)(=O)C1(CN2CCc3c(C(=O)NCc4ccc(C#N)cc4)nn(C)c3C2=O)CC1` [Example 101, N-(4-Cyanobenzyl)-1-methyl-6-((1-((2-methyl-1-(2-(methylamino)ethoxy)propan-2-yl)sulfonyl)cyclopropyl)methyl)-7-oxo-4,5,6,7-tetrahydro-1H-pyrazolo[3,4-c]pyridine-3-carboxamide], the IC50 was determined as 32 nM. Take `Cn1nc(C(=O)NCc2ccc(C#N)cc2)c2c1C(=O)N(CC1(S(=O)(=O)C(C)(C)COC3CNC3)CC1)CC2` [Example 102, 6-((1-((1-(Azetidin-3-yloxy)-2-methylpropan-2-yl)sulfonyl)cyclopropyl)methyl)-N-(4-cyanobenzyl)-1-methyl-7-oxo-4,5,6,7-tetrahydro-1H-pyrazolo[3,4-c]pyridine-3-carboxamide]: the IC50 was 42 nM. Consider `Cn1nc(C(=O)NCc2ccc(C#N)cc2)c2c1C(=O)N(CC1(S(=O)(=O)C(C)(C)COCC(C)(C)N)CC1)CC2` [Example 103, 6-((1-((1-(2-Amino-2-methylpropoxy)-2-methylpropan-2-yl)sulfonyl)cyclopropyl)methyl)-N-(4-cyanobenzyl)-1-methyl-7-oxo-4,5,6,7-tetrahydro-1H-pyrazolo[3,4-c]pyridine-3-carboxamide], for which the IC50 is 117 nM.

Consider `CN(C)CCOCC(C)(C)S(=O)(=O)C1(CN2CCc3c(C(=O)NCc4ccc(C#N)cc4)nn(C)c3C2=O)CC1` [Example 104, N-(4-Cyanobenzyl)-6-((1-((1-(2-(dimethylamino)ethoxy)-2-methylpropan-2-yl)sulfonyl)cyclopropyl)methyl)-1-methyl-7-oxo-4,5,6,7-tetrahydro-1H-pyrazolo[3,4-c]pyridine-3-carboxamide], for which the IC50 amounted to 108 nM.

On to `CNC(=O)C(C)(C)S(=O)(=O)C1(CN2CCc3c(C(=O)NCc4ccc(Cl)cc4)nn(C)c3C2=O)CC1` [Example 110, N-(4-Chlorobenzyl)-1-methyl-6-((1-((2-methyl-1-(methylamino)-1-oxopropan-2-yl)sulfonyl)cyclopropyl)methyl)-7-oxo-4,5,6,7-tetrahydro-1H-pyrazolo[3,4-c]pyridine-3-carboxamide], for which the IC50 is 166 nM. `Cn1nc(C(=O)NCc2ccc(C#N)cc2)c2c1C(=O)N(CC1(S(=O)(=O)C3(CCO)CC3)CC1)CC2` [Example 117, N-(4-Cyanobenzyl)-6-((1-((1-(2-hydroxyethyl)cyclopropyl)sulfonyl)cyclopropyl)methyl)-1-methyl-7-oxo-4,5,6,7-tetrahydro-1H-pyrazolo[3,4-c]pyridine-3-carboxamide]: the IC50 amounted to 59 nM. With `Cn1nc(C(=O)NCc2ccc(C#N)cc2)c2c1C(=O)N(CC1(S(=O)(=O)CC(C)(C)O)CC1)CC2` [Example 118, N-(4-Cyanobenzyl)-6-((1-((2-hydroxy-2-methylpropyl)sulfonyl)cyclopropyl)methyl)-1-methyl-7-oxo-4,5,6,7-tetrahydro-1H-pyrazolo[3,4-c]pyridine-3-carboxamide], the IC50 stood at 412 nM. Next, `Cn1nc(C(=O)NCc2ccc(Cl)cc2)c2c1C(=O)N(CC1(S(N)(=O)=O)CC1)CC2` [Example 121, N-(4-Chlorobenzyl)-1-methyl-7-oxo-6-((1-sulfamoylcyclopropyl)methyl)-4,5,6,7-tetrahydro-1H-pyrazolo[3,4-c]pyridine-3-carboxamide]: 671 nM. With `CN(C)/C=N/S(=O)(=O)C1(CN2CCc3c(C(=O)NCc4ccc(Cl)cc4)nn(C)c3C2=O)CC1` [Example 122, (E)-N-(4-Chlorobenzyl)-6-((1-(N-((dimethylamino)methylene)sulfamoyl)cyclopropyl)methyl)-1-methyl-7-oxo-4,5,6,7-tetrahydro-1H-pyrazolo[3,4-c]pyridine-3-carboxamide], the IC50 stood at 324 nM. For the molecule `Cn1nc(C(=O)NCc2ccc(C#N)cc2)c2c1C(=O)N(CC1(S(=O)(=O)N3CCOCC3)CC1)CC2` [Example 124, N-(4-Cyanobenzyl)-1-methyl-6-((1-(morpholinosulfonyl)cyclopropyl)methyl)-7-oxo-4,5,6,7-tetrahydro-1H-pyrazolo[3,4-c]pyridine-3-carboxamide], the IC50 turned out to be 121 nM. Regarding `Cn1nc(C(=O)NCc2ccc(C#N)cc2)c2c1C(=O)N(CC1(S(=O)(=O)N3CCC(O)CC3)CC1)CC2` [Example 125, N-(4-Cyanobenzyl)-6-((1-((4-hydroxypiperidin-1-yl)sulfonyl)cyclopropyl)methyl)-1-methyl-7-oxo-4,5,6,7-tetrahydro-1H-pyrazolo[3,4-c]pyridine-3-carboxamide], the IC50 was found to be 136 nM. With `Cn1nc(C(=O)NCc2ccc(C#N)cc2)c2c1C(=O)N(CC1(S(=O)(=O)N3CC[C@@H](O)C3)CC1)CC2` [Example 126, (R)-N-(4-Cyanobenzyl)-6-((1-((3-hydroxypyrrolidin-1-yl)sulfonyl)cyclopropyl)methyl)-1-methyl-7-oxo-4,5,6,7-tetrahydro-1H-pyrazolo[3,4-c]pyridine-3-carboxamide], the IC50 stood at 84 nM. Take `Cn1nc(C(=O)NCc2ccc(C#N)cc2)c2c1C(=O)N(CC1(S(=O)(=O)N3CC[C@H](O)C3)CC1)CC2` [Example 127, (S)-N-(4-Cyanobenzyl)-6-((1-((3-hydroxypyrrolidin-1-yl)sulfonyl)cyclopropyl)methyl)-1-methyl-7-oxo-4,5,6,7-tetrahydro-1H-pyrazolo[3,4-c]pyridine-3-carboxamide]: the IC50 was determined as 67 nM. As for `Cn1nc(C(=O)NCc2ccc(C#N)cc2)c2c1C(=O)N(CC1(S(=O)(=O)NC3CC3)CC1)CC2` [Example 129, N-(4-cyanobenzyl)-6-((1-(N-cyclopropylsulfamoyl)cyclopropyl)methyl)-1-methyl-7-oxo-4,5,6,7-tetrahydro-1H-pyrazolo[3,4-c]pyridine-3-carboxamide], the IC50 turned out to be 213 nM. Take `Cn1nc(C(=O)NCc2ccc(C#N)cc2)c2c1C(=O)N(CC1(S(=O)(=O)NC3COC3)CC1)CC2` [Example 132, N-(4-Cyanobenzyl)-1-methyl-6-((1-(N-(oxetan-3-yl)sulfamoyl)cyclopropyl)methyl)-7-oxo-4,5,6,7-tetrahydro-1H-pyrazolo[3,4-c]pyridine-3-carboxamide]: the IC50 came out at 451 nM. For the molecule `Cn1nc(C(=O)NCc2ccc(C#N)cc2)c2c1C(=O)N(CC1(S(=O)(=O)N3CCNCC3)CC1)CC2` [Example 133, N-(4-Cyanobenzyl)-1-methyl-7-oxo-6-((1-(piperazin-1-ylsulfonyl)cyclopropyl)methyl)-4,5,6,7-tetrahydro-1H-pyrazolo[3,4-c]pyridine-3-carboxamide], the concentration for half-maximal inhibition (IC50) was found to be 258 nM. Next, `Cn1nc(C(=O)NCc2ccc(C#N)cc2)c2c1C(=O)N(CC1(S(=O)(=O)NCCCN)CC1)CC2` [Example 134, 6-((1-(N-(3-Aminopropyl)sulfamoyl)cyclopropyl)methyl)-N-(4-cyanobenzyl)-1-methyl-7-oxo-4,5,6,7-tetrahydro-1H-pyrazolo[3,4-c]pyridine-3-carboxamide]: 282 nM. With `Cn1nc(C(=O)NCc2ccc(C#N)cc2)c2c1C(=O)N(CC1(S(=O)(=O)NCCN)CC1)CC2` [Example 135, 6-((1-(N-(2-Aminoethyl)sulfamoyl)cyclopropyl)methyl)-N-(4-cyanobenzyl)-1-methyl-7-oxo-4,5,6,7-tetrahydro-1H-pyrazolo[3,4-c]pyridine-3-carboxamide], the half-maximal inhibitory concentration (IC50) turned out to be 1090 nM.

In the case of `CN1CCN(S(=O)(=O)C2(CN3CCc4c(C(=O)NCc5ccc(C#N)cc5)nn(C)c4C3=O)CC2)CC1` [Example 136, N-(4-Cyanobenzyl)-1-methyl-6-((1-((4-methylpiperazin-1-yl)sulfonyl)cyclopropyl)methyl)-7-oxo-4,5,6,7-tetrahydro-1H-pyrazolo[3,4-c]pyridine-3-carboxamide], the IC50 came out at 243 nM. Consider `Cn1nc(C(=O)NCc2ccc(C#N)cc2)c2c1C(=O)N(CC1(S(=O)(=O)NC3CCNCC3)CC1)CC2` [Example 137, N-(4-Cyanobenzyl)-1-methyl-7-oxo-6-((1-(N-(piperidin-4-yl)sulfamoyl)cyclopropyl)methyl)-4,5,6,7-tetrahydro-1H-pyrazolo[3,4-c]pyridine-3-carboxamide], for which the IC50 worked out at 691 nM. Turning to `Cn1nc(C(=O)NCc2ccc(C#N)cc2)c2c1C(=O)N(CC1(S(=O)(=O)N3CCC(N)CC3)CC1)CC2` [Example 138, 6-((1-((4-Aminopiperidin-1-yl)sulfonyl)cyclopropyl)methyl)-N-(4-cyanobenzyl)-1-methyl-7-oxo-4,5,6,7-tetrahydro-1H-pyrazolo[3,4-c]pyridine-3-carboxamide], the half-maximal inhibitory concentration (IC50) was 326 nM. For the molecule `Cn1nc(C(=O)NCc2ccc(C#N)cc2)c2c1C(=O)N(CC1(S(=O)(=O)N3C[C@@H](N)[C@H](O)C3)CC1)CC2` [Example 139, 6-((1-(((3R,4R)-3-Amino-4-hydroxypyrrolidin-1-yl)sulfonyl)cyclopropyl)methyl)-N-(4-cyanobenzyl)-1-methyl-7-oxo-4,5,6,7-tetrahydro-1H-pyrazolo[3,4-c]pyridine-3-carboxamide], the IC50 amounted to 143 nM.

On to `Cn1nc(C(=O)NCc2ccc(C#N)cc2)c2c1C(=O)N(CC1(S(=O)(=O)N3C[C@H](N)[C@@H](O)C3)CC1)CC2` [Example 140, 6-((1-(((3S,4S)-3-Amino-4-hydroxypyrrolidin-1-yl)sulfonyl)cyclopropyl)methyl)-N-(4-cyanobenzyl)-1-methyl-7-oxo-4,5,6,7-tetrahydro-1H-pyrazolo[3,4-c]pyridine-3-carboxamide], for which the IC50 amounted to 147 nM. Regarding `Cn1nc(C(=O)NCc2ccc(C#N)cc2)c2c1C(=O)N(CC1(S(=O)(=O)N3CC[C@@H](N)C3)CC1)CC2` [Example 141, (R)-6-((1-((3-Aminopyrrolidin-1-yl)sulfonyl)cyclopropyl)methyl)-N-(4-cyanobenzyl)-1-methyl-7-oxo-4,5,6,7-tetrahydro-1H-pyrazolo[3,4-c]pyridine-3-carboxamide], the IC50 worked out at 192 nM. As for `Cn1nc(C(=O)NCc2ccc(C#N)cc2)c2c1C(=O)N(CC1(S(=O)(=O)N3CC[C@H](N)C3)CC1)CC2` [Example 142, (S)-6-((1-((3-Aminopyrrolidin-1-yl)sulfonyl)cyclopropyl)methyl)-N-(4-cyanobenzyl)-1-methyl-7-oxo-4,5,6,7-tetrahydro-1H-pyrazolo[3,4-c]pyridine-3-carboxamide], the IC50 was found to be 268 nM.
